From patent US10131652B2, “Pyrimidinyloxy benzene derivatives as herbicides” (E. I. DU PONT DE NEMOURS AND COMPANY, priority 2014, dated 2018)
Read-outs that look alike come from different tables or passages of the source.

How the values were obtained:
Assay in all cases: Test E pre-/postemergence plant response
Format in all cases: in vivo
[1] = system: Italian ryegrass (Lolium multiflorum); settings: scale 0 to 100, read-out: Plant response rating, Ryegrass, Italian; for pest or weed control at 16 g/ha: 16 g ai/ha; for pest or weed control at 31 g/ha: 31 g ai/ha; for pest or weed control at 62 g/ha: 62 g ai/ha; for pest or weed control at 125 g/ha: 125 g ai/ha
Method in brief: (§1)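 Pre-emergence: seeds sown in silt loam soil and sprayed with test chemicals in a non-phytotoxic solvent/surfactant mix. Post-emergence: plants at 2–18 cm (1- to 4-leaf stage) in peat/vermiculite medium treated with the same formulation. Visual rating versus controls after 7–21 days, 0 (no effect) to 100 (complete control).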

[2] = system: winter wheat (Triticum aestivum); settings: scale 0 to 100, read-out: Plant response rating, Wheat, Winter; for plant injury at 16 g/ha: 16 g ai/ha; for plant injury at 62 g/ha: 62 g ai/ha; for plant injury at 125 g/ha: 125 g ai/ha
Method in brief: as §1

[3] = system: wild radish (Raphanus raphanistrum); settings: scale 0 to 100, read-out: Plant response rating, Radish, Wild; for pest or weed control at 16 g/ha: 16 g ai/ha; for pest or weed control at 31 g/ha: 31 g ai/ha; for pest or weed control at 62 g/ha: 62 g ai/ha; for pest or weed control at 125 g/ha: 125 g ai/ha
Method in brief: as §1

[4] = system: deadnettle (henbit deadnettle, Lamium amplexicaule); settings: scale 0 to 100, read-out: Plant response rating, Deadnettle; for pest or weed control at 16 g/ha: 16 g ai/ha; for pest or weed control at 31 g/ha: 31 g ai/ha; for pest or weed control at 62 g/ha: 62 g ai/ha; for pest or weed control at 125 g/ha: 125 g ai/ha
Method in brief: as §1

[5] = system: field poppy (Papaver rhoeas); settings: scale 0 to 100, read-out: Plant response rating, Field Poppy; for pest or weed control at 16 g/ha: 16 g ai/ha; for pest or weed control at 31 g/ha: 31 g ai/ha; for pest or weed control at 62 g/ha: 62 g ai/ha; for pest or weed control at 125 g/ha: 125 g ai/ha
Method in brief: as §1

[6] = system: field violet (Viola arvensis); settings: scale 0 to 100, read-out: Plant response rating, Field Violet; for pest or weed control at 16 g/ha: 16 g ai/ha; for pest or weed control at 31 g/ha: 31 g ai/ha; for pest or weed control at 62 g/ha: 62 g ai/ha; for pest or weed control at 125 g/ha: 125 g ai/ha
Method in brief: as §1

[7] = system: green foxtail (Setaria viridis); settings: scale 0 to 100, read-out: Plant response rating, Foxtail, Green; for pest or weed control at 16 g/ha: 16 g ai/ha; for pest or weed control at 31 g/ha: 31 g ai/ha; for pest or weed control at 62 g/ha: 62 g ai/ha; for pest or weed control at 125 g/ha: 125 g ai/ha
Method in brief: as §1

[8] = system: wild buckwheat (Polygonum convolvulus); settings: Fallopia convolvulus, scale 0 to 100, read-out: Plant response rating, Buckwheat, Wild; for pest or weed control at 16 g/ha: 16 g ai/ha; for pest or weed control at 31 g/ha: 31 g ai/ha; for pest or weed control at 62 g/ha: 62 g ai/ha; for pest or weed control at 125 g/ha: 125 g ai/ha
Method in brief: as §1

[9] = system: lambsquarters (Chenopodium album); settings: scale 0 to 100, read-out: Plant response rating, Lambsquarters; for pest or weed control at 16 g/ha: 16 g ai/ha; for pest or weed control at 31 g/ha: 31 g ai/ha; for pest or weed control at 62 g/ha: 62 g ai/ha; for pest or weed control at 125 g/ha: 125 g ai/ha
Method in brief: as §1

[10] = system: pigweed (Amaranthus retroflexus); settings: scale 0 to 100, read-out: Plant response rating, Pigweed; for pest or weed control at 16 g/ha: 16 g ai/ha; for pest or weed control at 31 g/ha: 31 g ai/ha; for pest or weed control at 62 g/ha: 62 g ai/ha; for pest or weed control at 125 g/ha: 125 g ai/ha
Method in brief: as §1

[11] = system: spring wheat (Triticum aestivum); settings: scale 0 to 100, read-out: Plant response rating, Wheat, Spring; for plant injury at 16 g/ha: 16 g ai/ha; for plant injury at 62 g/ha: 62 g ai/ha; for plant injury at 125 g/ha: 125 g ai/ha
Method in brief: as §1

[12] = post-emergence, 31 g ai/ha, Postemergence

Fc1cccc(Oc2ncc(Cl)cn2)c1-c1cc(C(F)F)on1 [Compound 55, 5-chloro-2-[2-[5-(difluoromethyl)-3-isoxazolyl]-3-fluorophenoxy]pyrimidine]
10%: plant injury at 62 g/ha ([2]; pre-emergence, Preemergence) | pest or weed control at 16 g/ha ([7]; pre-emergence, Preemergence)
85%: pest or weed control at 16 g/ha ([5]; post-emergence, Postemergence) | pest or weed control at 62 g/ha ([6]; post-emergence, Postemergence) | pest or weed control at 62 g/ha ([9]; post-emergence, Postemergence) | pest or weed control at 16 g/ha ([10]; post-emergence, Postemergence)
15%: pest or weed control at 62 g/ha ([1]; post-emergence, Postemergence) | plant injury at 31 g/ha [2, 12] | plant injury at 31 g/ha [11, 12] | plant injury at 16 g/ha ([11]; pre-emergence, Preemergence) | plant injury at 62 g/ha ([11]; pre-emergence, Preemergence)
100%: pest or weed control at 31 g/ha ([3]; pre-emergence, Preemergence) | pest or weed control at 62 g/ha ([3]; pre-emergence, Preemergence) | pest or weed control at 125 g/ha ([3]; pre-emergence, Preemergence) | pest or weed control at 62 g/ha ([5]; post-emergence, Postemergence) | pest or weed control at 16 g/ha ([5]; pre-emergence, Preemergence) | pest or weed control at 31 g/ha ([5]; pre-emergence, Preemergence) | pest or weed control at 62 g/ha ([5]; pre-emergence, Preemergence) | pest or weed control at 125 g/ha ([5]; pre-emergence, Preemergence) | pest or weed control at 62 g/ha ([6]; pre-emergence, Preemergence) | pest or weed control at 125 g/ha ([6]; pre-emergence, Preemergence) | pest or weed control at 62 g/ha ([7]; pre-emergence, Preemergence) | pest or weed control at 125 g/ha ([7]; pre-emergence, Preemergence) | pest or weed control at 31 g/ha ([8]; pre-emergence, Preemergence) | pest or weed control at 62 g/ha ([8]; pre-emergence, Preemergence) | pest or weed control at 125 g/ha ([8]; pre-emergence, Preemergence) | pest or weed control at 31 g/ha ([9]; pre-emergence, Preemergence) | pest or weed control at 62 g/ha ([9]; pre-emergence, Preemergence) | pest or weed control at 125 g/ha ([9]; pre-emergence, Preemergence) | pest or weed control at 31 g/ha ([10]; pre-emergence, Preemergence) | pest or weed control at 62 g/ha ([10]; pre-emergence, Preemergence) | pest or weed control at 125 g/ha ([10]; pre-emergence, Preemergence)
50%: pest or weed control at 62 g/ha ([1]; pre-emergence, Preemergence) | pest or weed control at 125 g/ha ([1]; pre-emergence, Preemergence) | pest or weed control at 31 g/ha ([4]; post-emergence, Postemergence) | pest or weed control at 62 g/ha ([7]; post-emergence, Postemergence)
70%: pest or weed control at 31 g/ha ([3]; post-emergence, Postemergence) | pest or weed control at 16 g/ha ([3]; pre-emergence, Preemergence) | pest or weed control at 62 g/ha ([4]; post-emergence, Postemergence) | pest or weed control at 31 g/ha ([6]; post-emergence, Postemergence) | pest or weed control at 16 g/ha ([6]; pre-emergence, Preemergence)
90%: pest or weed control at 31 g/ha ([5]; post-emergence, Postemergence) | pest or weed control at 125 g/ha ([6]; post-emergence, Postemergence) | pest or weed control at 125 g/ha ([9]; post-emergence, Postemergence) | pest or weed control at 31 g/ha ([10]; post-emergence, Postemergence)
30%: plant injury at 62 g/ha ([2]; post-emergence, Postemergence) | pest or weed control at 16 g/ha ([7]; post-emergence, Postemergence)
95%: pest or weed control at 125 g/ha ([5]; post-emergence, Postemergence) | pest or weed control at 31 g/ha ([8]; post-emergence, Postemergence) | pest or weed control at 62 g/ha ([8]; post-emergence, Postemergence) | pest or weed control at 125 g/ha ([8]; post-emergence, Postemergence) | pest or weed control at 16 g/ha ([9]; pre-emergence, Preemergence) | pest or weed control at 62 g/ha ([10]; post-emergence, Postemergence) | pest or weed control at 125 g/ha ([10]; post-emergence, Postemergence)
25%: pest or weed control at 31 g/ha ([7]; pre-emergence, Preemergence) | plant injury at 62 g/ha ([11]; post-emergence, Postemergence)
75%: pest or weed control at 16 g/ha ([3]; post-emergence, Postemergence) | pest or weed control at 16 g/ha ([9]; post-emergence, Postemergence) | pest or weed control at 16 g/ha ([10]; pre-emergence, Preemergence)
60%: pest or weed control at 125 g/ha ([7]; post-emergence, Postemergence)
45%: pest or weed control at 31 g/ha ([7]; post-emergence, Postemergence) | plant injury at 125 g/ha ([11]; post-emergence, Postemergence)
5%: plant injury at 16 g/ha ([2]; pre-emergence, Preemergence) | plant injury at 16 g/ha ([11]; post-emergence, Postemergence)
80%: pest or weed control at 62 g/ha ([3]; post-emergence, Postemergence) | pest or weed control at 125 g/ha ([3]; post-emergence, Postemergence) | pest or weed control at 125 g/ha ([4]; post-emergence, Postemergence) | pest or weed control at 31 g/ha ([6]; pre-emergence, Preemergence) | pest or weed control at 31 g/ha ([9]; post-emergence, Postemergence)
35%: plant injury at 125 g/ha ([11]; pre-emergence, Preemergence)
40%: plant injury at 125 g/ha ([2]; post-emergence, Postemergence)
0%: pest or weed control at 16 g/ha ([1]; pre-emergence, Preemergence) | pest or weed control at 31 g/ha ([1]; pre-emergence, Preemergence) | plant injury at 16 g/ha ([2]; post-emergence, Postemergence) | pest or weed control at 16 g/ha ([4]; pre-emergence, Preemergence) | pest or weed control at 31 g/ha ([4]; pre-emergence, Preemergence) | pest or weed control at 62 g/ha ([4]; pre-emergence, Preemergence) | pest or weed control at 125 g/ha ([4]; pre-emergence, Preemergence)
65%: pest or weed control at 16 g/ha ([6]; post-emergence, Postemergence) | pest or weed control at 16 g/ha ([8]; post-emergence, Postemergence) | pest or weed control at 16 g/ha ([8]; pre-emergence, Preemergence)
20%: pest or weed control at 16 g/ha ([1]; post-emergence, Postemergence) | pest or weed control at 31 g/ha ([1]; post-emergence, Postemergence) | pest or weed control at 125 g/ha ([1]; post-emergence, Postemergence) | plant injury at 125 g/ha ([2]; pre-emergence, Preemergence) | pest or weed control at 16 g/ha ([4]; post-emergence, Postemergence)
